Measurements reported in ChEMBL document CHEMBL1201862, “PubChem BioAssay data set” (2004).
Calls of active or inactive are those of the source.

Columns and labels:
[1] = IC50 of Artemis nuclease activity blockers – biochemical, fluorescence intensity, dose response (AID 720701); assay type: functional;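 note: Artemis endonuclease enzyme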
[2] = viability inhibitors of stage V gametocytes – luminescence, dose response (AID 1117278); assay type: functional, cell-based;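 note: gametocytes exposed to compound for 24 hours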
[3] = viability loss in human Jurkat cells – cell-based, luminescence, cytotoxicity control for P. falciparum gametocyte viability project, dose response (AID 1117277); assay type: functional;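 note: potency reflects loss of cellular ATP meaning fewer viable cells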
INS1 = assay: INS-1E survival protection against cytokine death – cell-based, luminescence, retest, dose response (AID 449756); assay type: functional; settings: Rattus norvegicus;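 note: cell death triggered by IL-1 beta plus TNF-alpha plus IFN-gamma mixture; protective hits raise ATP signal compared with cytokine alone wells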
[4] = viability loss in HepG2 hepatoma cells – cell-based, ATP luminescence, cherry-pick, activator set 2, cytotoxicity control, dose response (AID 1053143); assay type: functional
Vero = assay: cells; assay type: functional; settings: Chlorocebus sabaeus
[5] = toxicity toward immortalized ovarian surface epithelium – cell-based, plate reader, dry powder samples, cytotoxicity control for PAX8 inhibitor project, dose response (AID 743045); assay type: functional
[6] = OVCAR8 cell viability loss – plate reader, dry powder samples, PAX8 project, dose response (AID 743197); assay type: functional, cell-based; settings: OVCAR-8
Paired box protein Pax-8 = Paired box protein Pax-8 (Homo sapiens, UniProt Q06710); assay: PAX8 transcriptional activity inhibition in RMG-I – RMG-I cells, luciferase, cherry-pick, dose response (AID 687027); assay type: functional, cell-based;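 note: luciferase reporter driven by Pax8 target thyroperoxidase promoter measured by SteadyGlo luminescence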
Sequence of Paired box protein Pax-8 (Q06710 whole entry): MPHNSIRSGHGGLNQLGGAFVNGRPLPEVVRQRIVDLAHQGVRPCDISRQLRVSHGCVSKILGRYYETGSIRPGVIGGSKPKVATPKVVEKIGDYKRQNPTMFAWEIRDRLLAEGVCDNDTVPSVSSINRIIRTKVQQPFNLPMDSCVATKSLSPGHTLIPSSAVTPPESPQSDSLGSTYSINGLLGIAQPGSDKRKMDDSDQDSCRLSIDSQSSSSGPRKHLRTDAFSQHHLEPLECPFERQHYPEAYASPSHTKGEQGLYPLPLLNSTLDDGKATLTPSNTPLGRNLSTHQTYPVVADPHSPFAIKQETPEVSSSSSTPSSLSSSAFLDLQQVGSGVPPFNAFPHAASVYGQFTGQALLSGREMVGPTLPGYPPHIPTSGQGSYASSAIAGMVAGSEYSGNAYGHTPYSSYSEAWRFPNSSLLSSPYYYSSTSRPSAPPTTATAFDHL

[7] = IGROV1 cell killing – plate reader, dry powder samples, PAX8 inhibitor project, dose response (AID 743043); assay type: functional, cell-based; settings: IGROV-1
[8] = OVCAR-3 cell viability loss – plate reader, dry powder samples, PAX8 inhibitor project, dose response (AID 743044); assay type: functional, cell-based
[9] = molecular target: Endoplasmic reticulum aminopeptidase 1 (Homo sapiens, UniProt Q9NZ08); assay: inhibition of human ERAP1 enzyme activity – biochemical, cherry-pick, set 2, plate reader, dose response (AID 743314)
Sequence of Endoplasmic reticulum aminopeptidase 1 (Q9NZ08 whole entry): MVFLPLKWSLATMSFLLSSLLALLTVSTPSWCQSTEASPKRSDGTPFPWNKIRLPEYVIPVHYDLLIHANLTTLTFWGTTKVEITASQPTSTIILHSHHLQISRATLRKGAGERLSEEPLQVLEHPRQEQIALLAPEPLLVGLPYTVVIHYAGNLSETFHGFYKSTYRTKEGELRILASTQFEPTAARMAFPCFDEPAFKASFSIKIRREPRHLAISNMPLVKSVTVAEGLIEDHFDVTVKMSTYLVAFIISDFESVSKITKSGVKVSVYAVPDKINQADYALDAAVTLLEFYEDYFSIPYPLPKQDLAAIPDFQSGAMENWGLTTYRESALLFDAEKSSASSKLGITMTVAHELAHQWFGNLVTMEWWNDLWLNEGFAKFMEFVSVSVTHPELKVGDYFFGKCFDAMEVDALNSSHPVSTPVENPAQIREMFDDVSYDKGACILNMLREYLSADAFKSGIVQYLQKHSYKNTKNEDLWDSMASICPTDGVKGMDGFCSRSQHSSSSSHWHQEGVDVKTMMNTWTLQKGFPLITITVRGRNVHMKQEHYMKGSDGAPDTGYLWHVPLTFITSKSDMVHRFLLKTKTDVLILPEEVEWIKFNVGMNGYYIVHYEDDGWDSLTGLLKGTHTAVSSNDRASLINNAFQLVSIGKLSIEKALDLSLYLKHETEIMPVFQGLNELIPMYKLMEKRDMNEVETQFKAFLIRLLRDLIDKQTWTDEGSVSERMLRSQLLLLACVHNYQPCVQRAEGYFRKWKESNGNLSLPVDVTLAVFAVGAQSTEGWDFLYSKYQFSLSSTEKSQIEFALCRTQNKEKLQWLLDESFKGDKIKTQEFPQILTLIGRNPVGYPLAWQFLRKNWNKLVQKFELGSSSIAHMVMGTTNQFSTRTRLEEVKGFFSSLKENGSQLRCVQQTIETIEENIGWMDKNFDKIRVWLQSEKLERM

Prothrombin = Prothrombin (Homo sapiens, UniProt P00734); assay: Thrombin 1536 HTS Dose Response Confirmation. [Related pubchem assays: 1046 (Thrombin 1536 HTS; hits were confirmed in this assay)]; assay type: functional
[10] = rise of 4N DNA cells, HeLa – IC50, dose response (AID 1117351); assay type: functional, cell-based
[11] = rise of 2N DNA cells, HeLa – IC50, dose response (AID 1117349); assay type: functional, cell-based

COc1ccc(-c2nn(-c3ccccc3)cc2C(=O)Nc2nc(CC(C)=O)ns2)cc1
IC50 [1]: > 20 µM (inactive)

O=C(Cn1c(C(F)(F)F)nc2ccccc21)Nc1ccccc1C(=O)O
IC50 [2]: > 109 µM (inactive) | IC50 [3]: > 83.3 µM (inactive)

COc1ccc2c(c1)c(/C=N/Nc1nc3ccccc3[nH]1)c(C)n2C
AC50 (INS1): 10.2 µM (active) | AC50 [4]: 26 µM (active) | CC50 (Vero): 13.4 µM (active)

COc1ccc(S(=O)(=O)N(C)C[C@@H]2Oc3ccc(NC(=O)Nc4ccc(C(F)(F)F)cc4)cc3CC(=O)N([C@H](C)CO)C[C@@H]2C)cc1
AC50 [5]: 13.8 µM (active) | AC50 [6]: 22.1 µM (active) | AC50 (Paired box protein Pax-8): 4.64 µM (active) | AC50 [7]: 16.8 µM (active) | AC50 [8]: 6.36 µM (active)

CN1[C@@H]2c3ccc(/C=C/c4ccccc4)c(=O)n3C[C@@H]2[C@@H](CO)[C@@H]1C(=O)NC1CCCC1
AC50 [9]: 17.5 µM (active)

COc1ccc(OC)c(S(=O)(=O)Nc2c(C)cccc2C)c1
IC50 [2]: > 109 µM (inactive) | IC50 [3]: > 83.3 µM (inactive)

COc1ccc(C(=O)n2nc(-c3ccco3)nc2N)cc1
IC50 (Prothrombin): 0.828 µM (active)

Cc1c(Cc2ccccc2)c(=O)oc2cc(O)ccc12
AC50 [9]: 12.6 µM (active)

O=c1[nH]c(=O)n([C@H]2C[C@H](O)[C@@H](CO)O2)cc1I [IDOXURIDINE]
IC50 [10]: > 10 µM (inactive) | IC50 [11]: > 10 µM (inactive)

CCC(C)n1ncn(-c2ccc(N3CCN(c4ccc(OC[C@H]5CO[C@](Cn6cncn6)(c6ccc(Cl)cc6Cl)O5)cc4)CC3)cc2)c1=O (stereo not given in full) [ITRACONAZOLE]
IC50 [10]: > 10 µM (inactive) | IC50 [11]: > 10 µM (inactive)
